Source: patent US20090044345A1, “Use of Metal Complex Compounds as Oxidation Catalysts” (priority 2006, published 2009)

Assays:
[1] = Stain bleaching in laundry at ambient temperature (hydrogen peroxide), curry stain; parameters: key: CIE brightness Y difference: washed with catalyst minus without; settings: 10 mmol/l hydrogen peroxide; catalyst 25 μmol/l; IEC 60456* washing agent 7.5 g/l; 50 minutes at ambient temperature; brightness vs. absence of catalyst
Method: (§1) 1 g of a circular stain (BC01 Tea, CFT; WFK10.0 Carrot juice, WFK; CS20/2 Tomato, CFT; BC04 Curry, CFT) was added into a vial with 3 ml washing liquor. The liquor contained a standard washing agent (IEC 60456*) in a concentration of 7.5 g/l. The hydrogen peroxide concentration was 10 mmol/l. The catalyst concentration (1:1 in-situ complex of the ligand with manganese(II) chloride tetrahydrate or iron (ii) chloride in methanolic solution) was 25 μmol/l. The vial was shaken with a shaker for 50 minutes at ambient temperature. After the treatment the fabric was carefully rinsed and ironed. The brightness values Y according to the CIE standard procedure of the stained test fabrics were measured with a Gretag SPM 100 instrument prior to and after the treatment, respectively. The bleaching effect is given as ΔΔY, i.e. the difference between the brightness of the fabrics washed in presence and in the absence of a catalyst, respectively.

[2] = Dishwashing: removal of tea deposit from tea-stained cups (IKW method); parameters: key: visual scale 0 = unchanged, very strong deposit to 10 = no deposit; settings: visual scale 0 (very strong deposit) to 10 (no deposit); carbonate buffer pH 9.6, 44 mM hydrogen peroxide, 20 μM catalyst, 15 minutes; reference without catalyst 4.5
Method: Tea-stained cups were prepared according to the IKW method (IKW-Arbeitskreis Maschinenspülmittel, “Methoden zur Bestimmung der Reinigungsleistung von maschinellen Geschirrspülmitteln (Part A and B)”, SÖFW, 11+14, 1998). Tea-stained cups were filled with a carbonate buffer solution (pH 9.6) containing 44 mM hydrogen peroxide and 20 μM catalyst (1:1 in-situ complex of the ligand with manganese(II) chloride tetrahydrate in methanolic solution). After 15 minutes the solution was removed, and the cups were rinsed with water. The removal of the tea deposit was evaluated visually on a scale from 0 (i.e. unchanged, very strong deposit) to 10 (i.e. no deposit).

[3] = Stain bleaching in laundry at ambient temperature (hydrogen peroxide), carrot juice stain; parameters: key: CIE brightness Y difference: washed with catalyst minus without; settings: 10 mmol/l hydrogen peroxide; catalyst 25 μmol/l; IEC 60456* washing agent 7.5 g/l; 50 minutes at ambient temperature; brightness vs. absence of catalyst
Method: as §1

[4] = Stain bleaching in laundry at ambient temperature (hydrogen peroxide), tea stain; parameters: key: CIE brightness Y difference: washed with catalyst minus without; settings: 10 mmol/l hydrogen peroxide; catalyst 25 μmol/l; IEC 60456* washing agent 7.5 g/l; 50 minutes at ambient temperature; brightness vs. absence of catalyst
Method: as §1

[5] = Stain bleaching in laundry at 40° C.; parameters: key: CIE brightness increase of stain vs. reference run without catalyst; settings: tea-stained cotton; 10 mmol/l hydrogen peroxide; catalyst 20 μmol/l; IEC 60456 A* detergent 7.5 g/l; LINITEST 30 minutes at 40° C.; relative to no catalyst
Method: 7.5 g of white cotton fabric and 2.5 g of tea-stained cotton fabric were treated in 80 ml of washing liquor. The liquor contained a standard detergent (IEC 60456 A*) in a concentration of 7.5 g/l. The hydrogen peroxide concentration was 10 mmol/l. The catalyst concentration (1:1 in-situ complex of the ligand with manganese(II) chloride tetrahydrate in methanolic solution) was 20 μmol/l. The washing process was carried out in a steel beaker in a LINITEST apparatus for 30 minutes at 40° C. To evaluate the bleaching results, the increase in brightness ΔΔY of the stains relative to reference experiments without the addition of catalyst (brightness according to CIE) was determined spectrophotometrically.

[6] = Stain bleaching in laundry at ambient temperature (hydrogen peroxide), tomato stain; parameters: key: CIE brightness Y difference: washed with catalyst minus without; settings: 10 mmol/l hydrogen peroxide; catalyst 25 μmol/l; IEC 60456* washing agent 7.5 g/l; 50 minutes at ambient temperature; brightness vs. absence of catalyst
Method: as §1

[7] = Stain bleaching in laundry with peracetic acid as oxidant, tea stain; settings: peracetic acid 3 mmol/l; catalyst 10 μmol/l; IEC 60456* washing agent 7.5 g/l; 50 minutes at ambient temperature; vs. absence of catalyst
Method: as §1, with “CFT; WFK 0.0” for “CFT; WFK10.0”, “The peracetic acid” for “The hydrogen peroxide”, “was 3” for “was 10”, “was 10” for “was 25”, “presence vs.” for “presence and in”

[8] = Stain bleaching in laundry with peracetic acid as oxidant, carrot juice stain; settings: peracetic acid 3 mmol/l; catalyst 10 μmol/l; IEC 60456* washing agent 7.5 g/l; 50 minutes at ambient temperature; vs. absence of catalyst
Method: as §1, with “CFT; WFK 0.0” for “CFT; WFK10.0”, “The peracetic acid” for “The hydrogen peroxide”, “was 3” for “was 10”, “was 10” for “was 25”, “presence vs.” for “presence and in”

[9] = Stain bleaching in laundry with peracetic acid as oxidant, tomato stain; settings: peracetic acid 3 mmol/l; catalyst 10 μmol/l; IEC 60456* washing agent 7.5 g/l; 50 minutes at ambient temperature; vs. absence of catalyst
Method: as §1, with “CFT; WFK 0.0” for “CFT; WFK10.0”, “The peracetic acid” for “The hydrogen peroxide”, “was 3” for “was 10”, “was 10” for “was 25”, “presence vs.” for “presence and in”

[10] = Stain bleaching in laundry with peracetic acid as oxidant, curry stain; settings: peracetic acid 3 mmol/l; catalyst 10 μmol/l; IEC 60456* washing agent 7.5 g/l; 50 minutes at ambient temperature; vs. absence of catalyst
Method: as §1, with “CFT; WFK 0.0” for “CFT; WFK10.0”, “The peracetic acid” for “The hydrogen peroxide”, “was 3” for “was 10”, “was 10” for “was 25”, “presence vs.” for “presence and in”

## CN(Cc1ccccn1)Cc1cc(O)cc(-c2ccccn2)n1 [Ligand 23-Mn, 6-[(methyl-pyridin-2-ylmethyl-amino)-methyl]-[2,2′]bipyridinyl-4-ol]
[1]
  ΔY Δ(Curry): 7.4
[2]
  Rating: 6.0
[3]
  ΔΔY (Carrot Juice): 1.3
[4]
  ΔΔY (Tea): 2.9
[5]
  ΔΔY: 2.1
[6]
  ΔΔY (Tomato): 0.6

## CN(Cc1ccccn1)Cc1cc(O)cc(-c2cc(N3CCCC3)ccn2)n1 [Ligand 27-Mn, 6-[(methyl-pyridin-2-ylmethyl-amino)-methyl]-4′-pyrrolidin-1-yl-[2,2′]bipyridinyl-4-ol]
[1]
  ΔY Δ(Curry): 8.2
[2]
  Rating: 6.7
[3]
  ΔΔY (Carrot Juice): 1.3
[4]
  ΔΔY (Tea): 5.3
[5]
  ΔΔY: 2.7
[6]
  ΔΔY (Tomato): 4.7

## CN1CCN(c2ccnc(-c3cc(O)cc(CN(C)Cc4ccccn4)n3)c2)CC1 [Ligand 29-Mn, 4′-(4-methyl-piperazin-1-yl)-6-[(methyl-pyridin-2-ylmethyl-amino)-methyl]-[2,2′]bipyridinyl-4-ol]
[1]
  ΔY Δ(Curry): 8.3
[2]
  Rating: 6.1
[3]
  ΔΔY (Carrot Juice): 3.1
[4]
  ΔΔY (Tea): 6.4
[6]
  ΔΔY (Tomato): 4.4

## CN1CCN(c2ccnc(-c3cc(O)cc(CN(C)Cc4ccccn4)n3)c2)CC1 [Ligand 29/Fe, 4′-(4-methyl-piperazin-1-yl)-6-[(methyl-pyridin-2-ylmethyl-amino)-methyl]-[2,2′]bipyridinyl-4-ol]
[5]
  ΔΔY: 5.0

## CN(Cc1ccccn1)Cc1cc(O)cc(-c2cc(N3CC[N+](C)(C)CC3)ccn2)n1.[I-] [Ligand 30-Mn, 4-{4′-hydroxy-6′-[(methyl-pyridin-2-ylmethyl-amino)-methyl]-[2,2′]bipyridinyl-4-yl}-1,1-dimethyl-piperazin-1-ium iodide]
[1]
  ΔY Δ(Curry): 7.1
[2]
  Rating: 7.8
[3]
  ΔΔY (Carrot Juice): 3.6
[4]
  ΔΔY (Tea): 7.0
[5]
  ΔΔY: 4.5
[6]
  ΔΔY (Tomato): 7.4

## CN(Cc1cc(N(C)C)ccn1)Cc1cc(O)cc(-c2cc(N3CCCC3)ccn2)n1 [Ligand 32-Mn, 6-{[(4-dimethylamino-pyridin-2-ylmethyl)-methyl-amino]-methyl}-4′-pyrrolidin-1-yl-[2,2′]bipyridinyl-4-ol]
[1]
  ΔY Δ(Curry): 8.5
[7]
  ΔΔY (Tea): 5.6
[2]
  Rating: 6.0
[3]
  ΔΔY (Carrot Juice): 3.1
[4]
  ΔΔY (Tea): 6.4
[5]
  ΔΔY: 4.5
[8]
  ΔΔY (Carrot Juice): 2.5
[6]
  ΔΔY (Tomato): 5.6
[9]
  ΔΔY (Tomato): 1.2
[10]
  ΔΔY (Curry): 5.3

## CN(Cc1cc(N(C)C)ccn1)Cc1cc(O)cc(-c2cc(N(C)CCO)ccn2)n1 [Ligand 33-Mn, 6-{[(4-dimethylamino-pyridin-2-ylmethyl)-methyl-amino]-methyl}-4′-[(2-hydroxy-ethyl)-methyl-amino]-[2,2′]bipyridinyl-4-ol]
[1]
  ΔY Δ(Curry): 9.1
[7]
  ΔΔY (Tea): 6.1
[2]
  Rating: 7.1
[3]
  ΔΔY (Carrot Juice): 3.9
[4]
  ΔΔY (Tea): 5.5
[5]
  ΔΔY: 3.9
[8]
  ΔΔY (Carrot Juice): 3.4
[6]
  ΔΔY (Tomato): 6.0
[9]
  ΔΔY (Tomato): 1.5
[10]
  ΔΔY (Curry): 5.7

## COc1c(C)cnc(CN(C)Cc2cc(O)cc(-c3cc(N4CCCC4)ccn3)n2)c1C [Ligand 36-Mn, 6-{[(4-methoxy-3,5-dimethyl-pyridin-2-ylmethyl)-methyl-amino]-methyl}-4′-pyrrolidin-1-yl-[2,2′]bipyridinyl-4-ol]
[1]
  ΔY Δ(Curry): 6.3
[2]
  Rating: 6.9
[3]
  ΔΔY (Carrot Juice): 3.3
[4]
  ΔΔY (Tea): 4.0
[5]
  ΔΔY: 1.6
[6]
  ΔΔY (Tomato): 4.9

## CN(Cc1cc(N2CCCC2)ccn1)Cc1cc(O)cc(-c2cc(N3CCCC3)ccn2)n1 [Ligand 39-Mn, 6-{[methyl-(4-pyrrolidin-1-yl-pyridin-2-ylmethyl)-amino]-methyl}-4′-pyrrolidin-1-yl-[2,2′]bipyridinyl-4-ol]
[1]
  ΔY Δ(Curry): 7.9
[2]
  Rating: 6.3
[3]
  ΔΔY (Carrot Juice): 4.2
[4]
  ΔΔY (Tea): 5.1
[5]
  ΔΔY: 4.0
[6]
  ΔΔY (Tomato): 8.8

## CN(Cc1cc(N(C)C)ccn1)Cc1cc(O)cc(-c2cc(N(C)C)ccn2)n1 [Ligand 40a-Mn, 4′-dimethylamino-6-{[(4-dimethylamino-pyridin-2-ylmethyl)-methyl-amino]-methyl}-[2,2′]bipyridinyl-4-ol]
[1]
  ΔY Δ(Curry): 3.0
[7]
  ΔΔY (Tea): 7.0
[2]
  Rating: 5.9
[3]
  ΔΔY (Carrot Juice): 5.0
[4]
  ΔΔY (Tea): 7.0
[5]
  ΔΔY: 3.0
[8]
  ΔΔY (Carrot Juice): 1.6
[6]
  ΔΔY (Tomato): 5.0
[9]
  ΔΔY (Tomato): 3.5
[10]
  ΔΔY (Curry): 6.4

## CN(Cc1cc(N(C)C)ccn1)Cc1cc(N(C)C)cc(-c2cc(N(C)C)ccn2)n1 [Ligand 40b-Mn]
[1]
  ΔY Δ(Curry): 3.7
[2]
  Rating: 5.8
[3]
  ΔΔY (Carrot Juice): 2.7
[4]
  ΔΔY (Tea): 1.7
[5]
  ΔΔY: 1.0
[6]
  ΔΔY (Tomato): 2.3

## CN(Cc1cc(-n2cccc2)ccn1)Cc1cc(O)cc(-c2cc(N(C)C)ccn2)n1 [Ligand 40c-Mn, 4′-dimethylamino-6-{[methyl-(4-pyrrol-1-yl-pyridin-2-ylmethyl)-amino]-methyl}-[2,2′]bipyridinyl-4-ol]
[1]
  ΔY Δ(Curry): 4.9
[2]
  Rating: 6.8
[3]
  ΔΔY (Carrot Juice): 2.5
[4]
  ΔΔY (Tea): 3.9
[5]
  ΔΔY: 2.2
[6]
  ΔΔY (Tomato): 1.3
